Data taken from patent publication US11596639B2, “Substituted indole Mcl-1 inhibitors” (Vanderbilt University, priority 2016, dated 2023).
Like-named read-outs stand apart in the source and are kept apart here.

Legend:
Mcl-1 = Mcl-1 (Homo sapiens (Human), UniProt Q07820); assay: Fluorescence polarization anisotropy (FPA) competition assay, FITC-Bak or FITC-Bim BH3 peptide; format: binding; conditions: read-out: Ki for Inhibition of Mcl-1 by FPA assay
[1] = tested on: H929 human cancer cell lines; assay: Cellular viability / proliferation (Cell TiterGlo, 72 h); format: cell-based
Method in brief: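 Plating is at 1,000 cells/well in 10% FBS medium; after 24 h, compound is added as a 2-fold series starting at 50 μM with under 1% DMSO.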

[2] = Homo sapiens, NCI-H929, 72 h, read-out: GI50 on cellular proliferation of H929 human cancer cell lines, H929 cells, 72 h, Cell TiterGlo, 10% FBS
[3] = read-out: GI50 on cellular proliferation of H929 human cancer cell lines, H929 cells, 72 h, Cell TiterGlo, 10% FBS

Mcl-1, sequence (Q07820 172-327): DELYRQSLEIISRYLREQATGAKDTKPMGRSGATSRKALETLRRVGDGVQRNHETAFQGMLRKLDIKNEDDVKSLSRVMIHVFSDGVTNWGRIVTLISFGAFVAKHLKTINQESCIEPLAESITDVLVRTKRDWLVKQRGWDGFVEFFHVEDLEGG

SMILES | Ki (Mcl-1) [nM] | GI50 [1, 2] [nM] | GI50 [1, 3] [nM] | GI50 ([1]; H929 cells, 72 h, Cell TiterGlo, 10% FBS, read-out: GI50 on cellular proliferation of H929 human cancer cell lines) [nM]
Cc1cc(OCCCc2c3n(c4c(-c5c(C)nn(C)c5C)c(Cl)ccc24)CCCN(c2cc(C(=O)O)c4cnn(C(C)C)c4c2)C3=O)cc(C)c1Cl [Example 92, 6-[8-Chloro-11-[3-(4-chloro-3,5-dimethyl-phenoxy)propyl]-1-oxo-7-(1,3,5-trimethylpyrazol-4-yl)-4,5-dihydro-3H-[1,4]diazepino[1,2-a]indol-2-yl]-1-isopropyl-indazole-4-carboxylic acid] | < 1 | 900 | – | –
Cc1cc(OCCCc2c3n(c4c(-c5c(C)nn(C)c5C)c(Cl)ccc24)[C@H](C)CN(c2cn(C)c4ccc(C(N)=O)cc24)C3=O)cc(C)c1Cl [Example 221, 3-[(4R)-7-chloro-10-[3-(4-chloro-3,5-dimethyl-phenoxy)propyl]-4-methyl-1-oxo-6-(1,3,5-trimethylpyrazol-4-yl)-3,4-dihydropyrazino[1,2-a]indol-2-yl]-1-methyl-indole-5-carboxamide] | 2.5 | 450 | – | –
Cc1cc(OCCCc2c3n(c4c(-c5c(C)nn(C)c5C)c(Cl)ccc24)[C@H](C)CN(c2nn(C)c4cccc(C(=O)O)c24)C3=O)cc(C)c1Cl [Example 179, (R)-3-(7-Chloro-10-(3-(4-chloro-3,5-dimethylphenoxy)propyl)-4-methyl-1-oxo-6-(1,3,5-trimethyl-1H-pyrazol-4-yl)-3,4-dihydropyrazino[1,2-a]indol-2(1H)-yl)-1-methyl-1H-indazole-4-carboxylic acid] | < 1 | – | 4700 | –
Cc1cc(OCCCc2c3n(c4c(-c5c(C)nn(C)c5C)c(Cl)ccc24)[C@H](C)CN(c2cn(C)c4ccc(C(=O)Nc5cccnc5)cc24)C3=O)cc(C)c1Cl [Example 291, 3-[(4R)-7-chloro-10-[3-(4-chloro-3,5-dimethyl-phenoxy)propyl]-4-methyl-1-oxo-6-(1,3,5-trimethylpyrazol-4-yl)-3,4-dihydropyrazino[1,2-a]indol-2-yl]-1-methyl-N-(3-pyridyl)indole-5-carboxamide] | 1.1 | 1000 | – | –
Cc1cc(OCCCc2c3n(c4c(-c5c(C)nn(C)c5C)c(Cl)ccc24)[C@H](C)CN(c2ccc(OCc4ccccc4)c4c2cc(C(=O)O)n4C)C3=O)cc(C)c1Cl [Example 312, (M, R)-7-(benzyloxy)-4-(7-chloro-10-(3-(4-chloro-3,5-dimethylphenoxy)propyl)-4-methyl-1-oxo-6-(1,3,5-trimethyl-1H-pyrazol-4-yl)-3,4-dihydropyrazino[1,2-a]indol-2(1H)-yl)-1-methyl-1H-indole-2-carboxylic acid] | 1.9 | – | – | 5700
Cc1cc(OCCCc2c3n(c4c(-c5c(C)nn(C)c5C)c(Cl)ccc24)[C@H](C)CN(c2cccc4cc(C(=O)O)[nH]c24)C3=O)cc(C)c1Cl [Example 242, 7-[(4R)-7-chloro-10-[3-(4-chloro-3,5-dimethyl-phenoxy)propyl]-4-methyl-1-oxo-6-(1,3,5-trimethylpyrazol-4-yl)-3,4-dihydropyrazino[1,2-a]indol-2-yl]-1H-indole-2-carboxylic acid] | < 1 | – | 1300 | –
Cc1cc(OCCCc2c3n(c4c(-c5c(C)nn(C)c5C)c(Cl)ccc24)[C@H](C)CN(c2ccc(C(=O)O)c4c2ccn4C)C3=O)cc(C)c1Cl [Example 51, (R)-4-(7-chloro-10-(3-(4-chloro-3,5-dimethylphenoxy)propyl)-4-methyl-1-oxo-6-(1,3,5-trimethyl-1H-pyrazol-4-yl)-3,4-dihydropyrazino[1,2-a]indol-2(1H)-yl)-1-methyl-1H-indole-7-carboxylic acid] | < 1 | 1500 | – | –
CCn1cc2cc(C(=O)O)cc(N3CCCn4c(c(CCCOc5cc(C)c(Cl)c(C)c5)c5ccc(Cl)c(-c6c(C)nn(C)c6C)c54)C3=O)c2n1 [Example 124, 7-(8-chloro-11-(3-(4-chloro-3,5-dimethylphenoxy)propyl)-1-oxo-7-(1,3,5-trimethyl-1H-pyrazol-4-yl)-4,5-dihydro-1H-[1,4]diazepino[1,2-a]indol-2(3H)-yl)-2-ethyl-2H-indazole-5-carboxylic acid] | < 1 | 1900 | – | –
Cc1cc(OCCCc2c3n(c4c(-c5c(C)nn(C)c5C)c(Cl)ccc24)[C@H](C)CN(c2cn(C)c4ccc(C(=O)NO)cc24)C3=O)cc(C)c1Cl [Example 361, (R)-3-(7-Chloro-10-(3-(4-chloro-3,5-dimethylphenoxy)propyl)-4-methyl-1-oxo-6-(1,3,5-trimethyl-1H-pyrazol-4-yl)-3,4-dihydropyrazino[1,2-a]indol-2(1H)-yl)-N-hydroxy-1-methyl-1H-indole-5-carboxamide] | 2 | 290 | – | –
Cc1cc(OCCCc2c3n(c4c(-c5c(C)ncnc5C)c(Cl)ccc24)CCCN(c2ccc(C(=O)O)c4ncccc24)C3=O)cc(C)c1Cl [Example 147, 5-[8-Chloro-11-[3-(4-chloro-3,5-dimethyl-phenoxy)propyl]-7-(4,6-dimethylpyrimidin-5-yl)-1-oxo-4,5-dihydro-3H-[1,4]diazepino[1,2-a]indol-2-yl]quinoline-8-carboxylic acid] | 1.8 | 4300 | – | –
Cc1cc(OCCCc2c3n(c4c(-c5c(C)nn(C)c5C)c(Cl)ccc24)[C@H](C)CN(c2ccc4cnoc4c2)C3=O)cc(C)c1Cl [Example 115, (R)-2-(benzo[d]isoxazol-6-yl)-7-chloro-10-(3-(4-chloro-3,5-dimethylphenoxy)propyl)-4-methyl-6-(1,3,5-trimethyl-1H-pyrazol-4-yl)-3,4-dihydropyrazino[1,2-a]indol-1(2H)-one] | 3.1 | 5100 | – | –
Cc1cc(OCCCc2c3n(c4c(-c5c(C)nn(C)c5C)c(Cl)ccc24)[C@H](C)CN(c2cc(C(=O)O)cc4c2ccn4CCN2CCOCC2)C3=O)cc(C)c1Cl [Example 96, (R)-4-(7-chloro-10-(3-(4-chloro-3,5-dimethylphenoxy)propyl)-4-methyl-1-oxo-6-(1,3,5-trimethyl-1H-pyrazol-4-yl)-3,4-dihydropyrazino[1,2-a]indol-2(1H)-yl)-1-(2-morpholinoethyl)-1H-indole-6-carboxylic acid] | 2.9 | 4700 | – | –
Cc1cc(OCCCc2c3n(c4c(-c5c(C)nn(C)c5C)c(Cl)ccc24)[C@H](C)[C@@H](C)N(c2cccc(C(=O)O)c2)C3=O)cc(C)c1Cl [Example 141, 3-((3R,4R)-7-chloro-10-(3-(4-chloro-3,5-dimethylphenoxy)propyl)-3,4-dimethyl-1-oxo-6-(1,3,5-trimethyl-1H-pyrazol-4-yl)-3,4-dihydropyrazino[1,2-a]indol-2(1H)-yl)benzoic acid] | 4.5 | 9500 | – | –
Cc1cc(N2C[C@@H](C)n3c(c(CCCOc4cc(C)c(Cl)c(C)c4)c4ccc(Cl)c(-c5c(C)nn(C)c5C)c43)C2=O)c2c(c1)c(C(=O)O)cn2C [Example 183, (R)-7-(7-chloro-10-(3-(4-chloro-3,5-dimethylphenoxy)propyl)-4-methyl-1-oxo-6-(1,3,5-trimethyl-1H-pyrazol-4-yl)-3,4-dihydropyrazino[1,2-a]indol-2(1H)-yl)-1,5-dimethyl-1H-indole-3-carboxylic acid] | < 1 | – | 360 | –
Cc1cc(OCCCc2c3n(c4c(-c5c(C)nn(CCN(C)C)c5C)c(Cl)ccc24)[C@H](C)CN(c2cn(C)c4cc(C(=O)O)ccc24)C3=O)cc(C)c1Cl [Example 309, (R)-3-(7-chloro-10-(3-(4-chloro-3,5-dimethylphenoxy)propyl)-6-(1-(2-(dimethylamino)ethyl)-3,5-dimethyl-1H-pyrazol-4-yl)-4-methyl-1-oxo-3,4-dihydropyrazino[1,2-a]indol-2(1H)-yl)-1-methyl-1H-indole-6-carboxylic acid] | < 1 | 530 | – | –
Cc1ccnc(Cn2c(C(=O)O)cc3cc(OC(F)(F)F)cc(N4C[C@@H](C)n5c(c(CCCOc6cc(C)c(Cl)c(C)c6)c6ccc(Cl)c(-c7c(C)nn(C)c7C)c65)C4=O)c32)c1 [Example 474, (R)-7-(7-Chloro-10-(3-(4-chloro-3,5-dimethylphenoxy)propyl)-4-methyl-1-oxo-6-(1,3,5-trimethyl-1H-pyrazol-4-yl)-3,4-dihydropyrazino[1,2-a]indol-2(1H)-yl)-1-((4-methylpyridin-2-yl)methyl)-5-(trifluoromethoxy)-1H-indole-2-carboxylic acid] | 17 | 1200 | – | –
Cc1cc(OCCCc2c3n(c4c(-c5c(C)nn(C)c5C)c(Cl)ccc24)CCCN(c2cc(C(=O)O)cc4c2cnn4C)C3=O)cc(C)c1Cl [Example 45, 4-[8-chloro-11-[3-(4-chloro-3,5-dimethyl-phenoxy)propyl]-1-oxo-7-(1,3,5-trimethylpyrazol-4-yl)-4,5-dihydro-3H-[1,4]diazepino[1,2-a]indol-2-yl]-1-methyl-indazole-6-carboxylic acid] | 1.7 | 3800 | – | –
Cc1cc(OCCCc2c3n(c4c(-c5c(C)nn(C)c5C)c(Cl)ccc24)[C@H](C)CN(c2cc4cc(C(=O)O)ccc4n2C)C3=O)cc(C)c1Cl [Example 174, 2-[(4R)-7-chloro-10-[3-(4-chloro-3,5-dimethyl-phenoxy)propyl]-4-methyl-1-oxo-6-(1,3,5-trimethylpyrazol-4-yl)-3,4-dihydropyrazino[1,2-a]indol-2-yl]-1-methyl-indole-5-carboxylic acid] | 4.2 | 6300 | – | –
Cc1cc(OCCCc2c3n(c4c(-c5c(C)ncnc5C)c(Cl)ccc24)CCCN(c2cc(C(=O)O)c4ccn(C)c4c2)C3=O)cc(C)c1Cl [Example 130, 6-[8-Chloro-11-[3-(4-chloro-3,5-dimethyl-phenoxy)propyl]-7-(4,6-dimethylpyrimidin-5-yl)-1-oxo-4,5-dihydro-3H-[1,4]diazepino[1,2-a]indol-2-yl]-1-methyl-indole-4-carboxylic acid] | < 1 | 2400 | – | –
